Columns and labels:
[1] = biological target: human Smo (Homo sapiens (Human), UniProt Q99835); assay: Smo radioligand competition binding assay; conditions: for inhibition at 0.05 µM: 0.05 μM test compound, read-out: Smo % inh. @ 0.05 μM
Method: Smo Radioligand Competition Binding Assay
Membranes were prepared from a stable cell line created in HEK293FlpIn-TetR cells (Invitrogen) using Flp recombinase-mediated insertion of the pSecTag-FRT/V5-His vector containing a cDNA encoding amino acids […] of human Smo fused to the murine Igk leader sequence to produce a cell surface expressed Smo 181-781 protein. Hygromycin-resistant clones were obtained and stained for LacZ expression (no expression indicates a correct knock-in of fusion cDNA). LacZ-negative cells were analyzed for binding tritiated Smo antagonists. For membrane preparation, the HEK293 cells expressing Smo 181-781 were grown to 90% confluence in nine to fifteen 245 mm×245 mm×22 mm dishes, washed with Dulbecco's PBS (15 mL per dish) and harvested via scraping in 10 mL of DPBS. The cells were collected and centrifuged at 1500 rpm (400×g) for 10 min at 4° C. The cell pellets were re-suspended in 40 mL of cold DPBS and washed by centrifugation at 2300 rpm (950×g max) for 10 minutes at 4° C. The supernatant was aspirated and the cell pellet was snap frozen in a methanol/dry ice bath and stored at −70° C. For membrane preparation, 15 mL of Membrane Preparation Buffer (50 mM Tris-HCl pH 7.5, 250 mM sucrose with Roche complete protease cocktail tablets) was added to the tube containing the cell pellet, then cells are rapidly thawed, and homogenized using an Ultra-Turrax T8 (IKA Labortechnik) set on “6” for 15 seconds for 5-6 times in icy water bath. This homogenate was diluted up to 50 mL using Membrane Preparation Buffer and centrifuged at 35,000 rpm in a Beckman Ti45 rotor (140,000×g) for 35 minutes at 4° C. followed by aspiration of the supernatant and re-suspension of the pellet in 5 mL of Assay Buffer (50 mM Tris-HCl pH 7.5, 100 mM NaCl, 25 mM MgCl2, 1 mM EDTA, and 0.1% protease free bovine serum albumin). The re-suspended pellet was then homogenized in a glass tissue grinder. The re-suspended membranes were aliquoted (0.5 mL aliquots), snap frozen and stored at −70° C. Total protein in the membrane preparation was determined using the Pierce BCA protein assay (Pierce Chemical).
For the binding competition assay, 100 μL of Assay Buffer was added to all the wells of a 96 well GF/B filter plate (Millipore MultiScreen-HTS-FB cat# MSFBN6B50) for 10 minutes to pre-wet the filter prior to evacuation of the buffer (8 inches Hg for 8 seconds). To the pre-wet wells is added: 20 μL of Assay Buffer, 10 μL diluted test agent, 20 μL of a tritiated Smo antagonist (15 nM stock solution), and 50 μL of membrane preparation (40 μg total protein per well). The plates are sealed and mixed at room temperature for 5 min, incubated at room temperature for 2 hours, then washed 5 times with 100 μL/each of wash buffer and vacuum dried for 8 seconds at 8 inches Hg. The plate is then dried for one hour in a 60° C. oven prior to the addition of 45 μL of Microscint 20 (Packard, #6013621) to each well and incubation at RT for 30 minutes to 1 hour. The plate is counted in a TopCount scintillation counter (Perkin Elmer).
Data analysis uses Excel for % Inhibition and Graphpad Prism for IC50 calculation. Total binding (TB, in the absence of inhibitors)=average of tritiated Smo antagonist 3 nM+Smo membrane (40 μg/wells (approx 5000-7000 CPM)). Non-specific binding (NSB)=average of tritiated Smo antagonist (3 nM)+cold Smo antagonist (30 μM)+Smo membrane (approx 600-1200 CPM). Specific binding (SB)=(total binding−non-specific binding). % Inhibition=[1−(compound Specific binding/control Specific binding)]×100%. IC50 is calculated by fitting the data to the four parameter sigmoidal dose-response curve (variable slope) Y=Bottom+(Top-Bottom)/(1+10^((LogEC50−X)*HillSlope)). X is the logarithm of the inhibitor concentration. Y is the response; Y starts at Bottom and goes to Top with a sigmoid shape.

[2] = system: Gli-Luc/MEF cells; assay: Gli-Luc/MEF assay; format: cell-based, mouse; conditions: Mus musculus, MEF; Shh-stimulated luciferase, 48 hours
Method: The Gli-Luc/MEF cells obtained from Gli-Luc transgenic mice contain a luciferase reporter gene under the control of the Gli response element. Luciferase activity stimulated with Sonic hedgehog ligand was inhibited by Smo inhibitors, and IC50 was subsequently calculated.
Plates were incubated at 37° C. and 5% CO2 overnight. On day two, cells were dosed with test compounds at a final concentration ranging from 3 μM to 50 μM at a 3-time series dilution. Immediately after dosing cells with compounds, recombinant mouse sonic hedgehog (Shh, R&D Systems 464-SH) was added to a final concentration of 2 μg/mL. The cells were incubated with compounds and Shh for 48 hours at 37° C. and 5% CO2. Luciferase assays were conducted on Day 4 using the Bright-Glo Luciferase assay system (Promega E2620) according to Promega's protocol. Briefly, Bright-Glo luciferase reagent was made up and 25 μL were added to each well of the 384-well plate containing media. Plates were kept at room temperature for 5 minutes, and then read on an Envision Luminescence plate reader (Perkin-Elmer). IC50 of the inhibition was calculated by using GraphPad Prism.

human Smo, sequence (Q99835 181-787): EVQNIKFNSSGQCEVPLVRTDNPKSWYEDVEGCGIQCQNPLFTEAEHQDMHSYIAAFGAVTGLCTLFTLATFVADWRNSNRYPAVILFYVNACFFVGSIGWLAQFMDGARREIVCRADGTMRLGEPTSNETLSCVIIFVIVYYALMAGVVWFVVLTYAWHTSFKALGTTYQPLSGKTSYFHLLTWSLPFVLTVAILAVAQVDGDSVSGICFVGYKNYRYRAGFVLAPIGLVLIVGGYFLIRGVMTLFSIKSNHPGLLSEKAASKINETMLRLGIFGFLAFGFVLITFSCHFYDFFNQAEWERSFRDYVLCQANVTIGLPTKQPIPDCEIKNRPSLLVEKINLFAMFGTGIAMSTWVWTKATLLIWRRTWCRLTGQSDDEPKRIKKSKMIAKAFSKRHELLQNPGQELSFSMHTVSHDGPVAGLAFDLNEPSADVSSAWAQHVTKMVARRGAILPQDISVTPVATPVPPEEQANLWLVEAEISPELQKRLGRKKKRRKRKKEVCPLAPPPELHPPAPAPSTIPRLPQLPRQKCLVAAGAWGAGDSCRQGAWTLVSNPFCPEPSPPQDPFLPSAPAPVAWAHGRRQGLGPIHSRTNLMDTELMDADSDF

SMILES | IC50 [1] [nM] | inhibition at 0.05 µM [1] [%] | IC50 [2] [nM]
COCC(=O)N1CCN(c2cc(-c3ncccc3C)c(Cl)cn2)CC1 [Example A-28, 5′-chloro-2′-[4-(methoxyacetyl)piperazin-1-yl]-3-methyl-2,4′-bipyridine] | 212 | 68.9 | 146
COCCC(=O)N1CCN(c2cc(-c3ncccc3C)c(Cl)cn2)CC1 [Example A-29, 5′-chloro-2′-[4-(3-methoxypropanoyl)piperazin-1-yl]-3-methyl-2,4′-bipyridine] | 52.3 | 89.3 | 42.5
Cc1cccnc1-c1nc(N2CCC(O)CC2)ncc1Cl [Example A-30, 1-[5-chloro-4-(3-methylpyridin-2-yl)pyrimidin-2-yl]piperidin-4-ol] | 160 | 77.7 | 246
Cc1cccnc1-c1cc(N2CCC(NC(=O)CN(C)C)CC2)ncc1Cl [Example A-31, N-(1-(5′-chloro-3-methyl-[2,4′-bipyridin]-2′-yl)piperidin-4-yl)-2-(dimethylamino)acetamide] | 43.4 | 89.2 | 20.8
COC(=O)NC1CCN(c2cc(-c3ncccc3C)c(Cl)cn2)CC1 [Example A-32, methyl [1-(5′-chloro-3-methyl-2,4′-bipyridin-2′-yl)piperidin-4-yl]carbamate] | 77.9 | 86.6 | 27.4
Cc1cccnc1-c1nc(N2CCN(S(C)(=O)=O)CC2)ncc1Cl [Example A-33, 5-chloro-4-(3-methylpyridin-2-yl)-2-[4-(methylsulfonyl)piperazin-1-yl]pyrimidine] | 172 | 76.9 | 113
Cc1cccnc1-c1nc(N2CCC(NS(C)(=O)=O)CC2)ncc1Cl [Example A-34, N-{1-[5-chloro-4-(3-methylpyridin-2-yl)pyrimidin-2-yl]piperidin-4-yl}methanesulfonamide] | 24.4 | 94.8 | 20.9
CC(=O)NC1CCN(c2cc(-c3ncccc3C)c(Cl)cn2)CC1 [Example A-35, N-[1-(5′-chloro-3-methyl-2,4′-bipyridin-2′-yl)piperidin-4-yl]acetamide] | 199 | 70.6 | 67.7
COC(=O)N1CCN(c2ncc(Cl)c(-c3ncccc3C)n2)CC1 [Example A-36, methyl 4-[5-chloro-4-(3-methylpyridin-2-yl)pyrimidin-2-yl]piperazine-1-carboxylate] | 246 | 72.7 | 109
COCCOCC1CCN(c2cc(-c3ncccc3C)c(Cl)cn2)CC1 [Example A-37, 5′-chloro-2′-{4-[(2-methoxyethoxy)methyl]piperidin-1-yl}-3-methyl-2,4′-bipyridine] | 209 | 71.6 | 98
Cc1cccnc1-c1cc(N2CCC(OCC(C)C)CC2)ncc1Cl [Example A-38, 5′-chloro-2′-(4-isobutoxypiperidin-1-yl)-3-methyl-2,4′-bipyridine] | 164 | 78.5 | 60.2
CCOC(=O)N1CCN(c2cc(-c3ncccc3C)c(Cl)cn2)CC1 [Example A-39, ethyl 4-(5′-chloro-3-methyl-2,4′-bipyridin-2′-yl)piperazine-1-carboxylate] | 109 | 80.7 | 48.5
CCCNC(=O)COC1CCN(c2cc(-c3ncccc3C)c(Cl)cn2)CC1 [Example A-40, 2-{[1-(5′-chloro-3-methyl-2,4′-bipyridin-2′-yl)piperidin-4-yl]oxy}-N-propylacetamide] | 254 | 70.2 | 114
CCN(CC)C(=O)COC1CCN(c2cc(-c3ncccc3C)c(Cl)cn2)CC1 [Example A-41, 2-{[1-(5′-chloro-3-methyl-2,4′-bipyridin-2′-yl)piperidin-4-yl]oxy}-N,N-diethylacetamide] | 131 | 82.3 | 28.5
Cc1cccnc1-c1cc(N2CCC(OCC(=O)NC(C)(C)C)CC2)ncc1Cl [Example A-42, N-tert-butyl-2-{[1-(5′-chloro-3-methyl-2,4′-bipyridin-2′-yl)piperidin-4-yl]oxy}acetamide] | 125 | 80.5 | 37.1
Cc1cccnc1-c1cc(N2CCN(C(=O)C(C)(C)C)CC2)ncc1Cl [Example A-43, 5′-chloro-2′-[4-(2,2-dimethylpropanoyl)piperazin-1-yl]-3-methyl-2,4′-bipyridine] | 25.5 | 95 | 19.1
Cc1cccnc1-c1cc(N2CCN(C(=O)C(C)C)CC2)ncc1Cl [Example A-44, 5′-chloro-2′-(4-isobutyrylpiperazin-1-yl)-3-methyl-2,4′-bipyridine] | 128 | 82.9 | 80.2
CS(=O)(=O)NC1CCN(c2ncc(Cl)c(-c3ccccn3)n2)CC1 [Example A-45, N-[1-(5-chloro-4-pyridin-2-ylpyrimidin-2-yl)piperidin-4-yl]methanesulfonamide] | 83.7 | 80.1 | 58.2
Cc1cccnc1-c1cc(N2CCN(c3ncc(Br)cn3)CC2)ncc1Cl [Example A-46, 2′-[4-(5-bromopyrimidin-2-yl)piperazin-1-yl]-5′-chloro-3-methyl-2,4′-bipyridine] | – | 97.6 | 21.1
Cc1cccnc1-c1cc(N2CCN(C(=O)CC(C)(C)O)CC2)ncc1Cl [Example A-47, 4-[4-(5′-chloro-3-methyl-2,4′-bipyridin-2′-yl)piperazin-1-yl]-2-methyl-4-oxobutan-2-ol] | 21.7 | 95.2 | 36.3
Cc1cccnc1-c1cc(N2CCC(CNS(C)(=O)=O)CC2)ncc1Cl [Example A-48, N-{[1-(5′-chloro-3-methyl-2,4′-bipyridin-2′-yl)piperidin-4-yl]methyl}methanesulfonamide] | 57 | 82 | 48
Cc1cccnc1-c1cc(N2CCC(NCCS(C)(=O)=O)CC2)ncc1Cl [Example A-49, 1-(5′-chloro-3-methyl-2,4′-bipyridin-2′-yl)-N-[2-(methylsulfonyl)ethyl]piperidin-4-amine] | 39 | 87 | 44
Cc1cccnc1-c1ccnc(N2CCC(NS(C)(=O)=O)CC2)n1 [Example A-50, N-{1-[4-(3-methylpyridin-2-yl)pyrimidin-2-yl]piperidin-4-yl}methanesulfonamide] | 17.7 | 97.1 | 27.4

Source: patent publication US9056865B2, “Pyridine-2-derivatives as smoothened receptor modulators” (Pfizer Inc., priority 2010, dated 2015)
